# Source: US10682371B2, “Small molecule conjugates specifically activated in tumor microenvironment for targeting and use thereof” (priority 2014, dated 2020)
# *1 amine or outer side, *2 acyl side, *3 side chain or, on linkers, in order; H or OH if unused. Where a SMILES comes first, the peptide text is derived from it. [ ]: non-standard residue; d: D form. The star is where a group is joined. ξ: configuration not given here. Doxorubicin(3'-N) = COc1cccc2c1C(=O)c1c(O)c3c(c(O)c1C2=O)C[C@@](O)(C(=O)CO)C[C@@H]3O[C@H]1C[C@H](N*)[C@H](O)[C@H](C)O1; Dolaproine(all-ξ) = COC(C(C)C(=O)[*:2])C1CCCN1[*:1]; Dolaproine = CO[C@@H]([C@@H]1CCCN1)[C@@H](C)C(=O)O; Dil = CC[C@H](C)[C@H](NC)[C@@H](CC(=O)O)OC; X1 = CCC(C)C(C(CC(=O)[*:2])OC)N(C)[*:1]; PABC = O=C(OCc1ccc(N[*:1])cc1)[*:2]; X3 = C[C@@H](N*)[C@@H](O)c1ccccc1; MeOCH2CH2OCH2CO = COCCOCC(=O)*; NMeV = CN[CH](C(=O)O)C(C)C; X2 = CC(N*)C(O)c1ccccc1; Cbz = O=C(OCc1ccccc1)*
# Key:
# [1] = test system: Human breast cancer MDA-MB231 cells; assay type: in vivo, nude mice; settings: for tumor inhibition rate (%): mouse, in vivo
# Experimental: 1) Human breast cancer MDA-MB231 cells were purchased from American type culture collection (ATCC) and identified according the specification provided by ATCC. Cells were cultivated in […] (DMEM culture medium) containing 10% fetal bovine serum at 37° C. and 5% CO2. The cells were passaged for every three days and cells within the 15th passage were used.
# 2) Production of tumor. 5×10^6 MDA-MB231 cells were subcutaneously injected to the back of the nude mice. Mice were randomly grouped after the tumor reached at least 100 mm^3. Then treatment began and the day on which the treatment began was day 1.
# 3) Course of treatment. […] The drugs were administered once weekly for four weeks.
# When R1 is 2-(2-Methoxyethoxy)Acetyl, and R3 is Ala, activation study and efficacy study were carried out by using compounds having different cleavable linker. The study methods are identical to those in Examples 10, 11 and 12. The in vitro activation efficiency was tested by asparagine endopeptidase and the tumor inhibition rate was tested by using human breast cancer MDA-MB231 model. […]
# [2] = test system: HEK293 cells; assay type: cell-based
# Experimental: Toxicity detection method: a standard universal test program was used to perform the in vitro cytotoxicity test. 2500 HEK293 cells were cultured in a 96-well plate, and allowed to grow overnight. Cytotoxic compounds and their corresponding conjugated compounds were added into each well in different concentrations, cultivated with the cells at 37° C. for 72 hours, and then treated with MTT reagents. OD changes were read. The approximate multiples of the toxicity change were obtained by comparing the IC50 of the modified compounds to their corresponding cytotoxic compounds.
# [3] = target: T1, asparagine endopeptidase (Homo sapiens, UniProt Q99538)
# T1 sequence (Q99538 26-323 limits assumed): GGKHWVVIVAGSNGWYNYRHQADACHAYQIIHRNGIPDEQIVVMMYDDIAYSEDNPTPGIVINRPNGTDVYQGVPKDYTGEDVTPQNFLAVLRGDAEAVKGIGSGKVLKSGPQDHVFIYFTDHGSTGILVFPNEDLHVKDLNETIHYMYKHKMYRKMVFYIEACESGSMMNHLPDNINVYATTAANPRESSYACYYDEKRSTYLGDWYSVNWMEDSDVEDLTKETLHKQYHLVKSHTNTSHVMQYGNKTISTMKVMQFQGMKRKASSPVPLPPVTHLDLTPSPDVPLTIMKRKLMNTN
# Experimental: Reduction of reactant and increase of product were detected by HPLC, thereby comparing the activation efficiency of these compounds.
# When R1 is 2-(2-Methoxyethoxy)Acetyl, and R3 is Ala, activation study and efficacy study were carried out by using compounds having different cleavable linker. The study methods are identical to those in Examples 10, 11 and 12. The in vitro activation efficiency was tested by asparagine endopeptidase and the tumor inhibition rate was tested by using human breast cancer MDA-MB231 model.
# [4] = test system: Human renal cancer OS-RC-2 tumor tissue homogenate; assay type: biochemical; settings: Human renal cancer OS-RC-2 tumor tissue homogenate (30 μg/ml); 1 mg/ml compound
# Experimental: (§1) At 37 °C, sample compounds were added into 100 μg acidized tumor tissue homogenates (pH6.0) in a concentration of 1 mg/ml.
# (§2) […], sample compounds were added into 100 μg acidized tumor tissue homogenates (pH6.0) in a concentration of 1 mg/ml.
# (§3) At 37 °C, sample compounds were added into 100 μg acidized tumor tissue homogenates in a concentration of 1 mg/ml.
# (§4) In the experiments, at 37 °C, compounds were added into proteases in 100 μg acidized tumor tissue homogenates in a concentration of 1 mg/ml. […] Meanwhile certain compounds produced in the screening were compared and their activation efficiency in same tissue was analyzed.
# (§5) At 37° C., compounds were added into proteases in 100 μg acidized tumor tissue homogenates in a concentration of 1 mg/ml.
# [5] = test system: Human non-small cell lung cancer A549 tumor tissue homogenate; assay type: biochemical; settings: Human non-small cell lung cancer A549 tumor tissue homogenate (30 μg/ml); 1 mg/ml compound
# Experimental: as §1, §2, §3, §4, §5
# [6] = test system: Human liver cancer Hepg2 tumor tissue homogenate; assay type: biochemical; settings: Human liver cancer Hepg2 tumor tissue homogenate (30 μg/ml); 1 mg/ml compound
# Experimental: as §1, §2, §3, §4, §5
# [7] = test system: Human chronic leukemia K562 tumor tissue homogenate; assay type: biochemical; settings: Human chronic leukemia K562 tumor tissue homogenate (30 μg/ml); 1 mg/ml compound
# Experimental: as §1, §2, §3, §4, §5
# [8] = test system: Human pancreatic cancer Panc-1 tumor tissue homogenate; assay type: biochemical; settings: Human pancreatic cancer Panc-1 tumor tissue homogenate (30 μg/ml); 1 mg/ml compound
# Experimental: as §1, §2, §3, §4, §5
# [9] = test system: Human colon cancer HT-29 tumor tissue homogenate; assay type: biochemical; settings: Human colon cancer HT-29 tumor tissue homogenate (30 μg/ml); 1 mg/ml compound
# Experimental: as §1, §2, §3, §4, §5
# [10] = test system: tumor CD8+ T cells; assay type: in vivo, C57 mice; settings: D121 immunized C57 mice, 13.2 μmol/kg; ratio of CD8 positive cells in CD45 positive cells of tumor
# Experimental: (§6) 4) Analysis on tumor CD8+ T cells. The tumor tissue was homogenated and individual cells in the tumor were filtered, separated and washed by buffer twice, then cultivated with the leucocyte common antigen CD45-PE and CD8-FITC marked antibodies for 1 hour at ambient temperature. The cells were washed by phosphate buffer containing 1% fetal bovine serum twice and then analyzed for the ratio of the T lymphocyte antigen (CD8) positive cells in the leucocyte common antigen (CD45) positive cells by flow cytometry.
# as §6, with “CD45-PE and T-lymphocyte antigen CD8-FITC marked” for “CD45-PE and CD8-FITC marked”, “flow cytometry. Increasement of the ratio indicates increased T lymphocyte cells and thus the animal immunity against the tumor was improved.” for “flow cytometry.”
# as §6, with “cytometry. Increasement of the ratio indicates increased T lymphocyte cells and thus the animal immunity against the tumor was improved.” for “cytometry.”
# [11] = test system: D121 lung tumor cells; assay type: in vivo, C57 mice
# Experimental: 1) D121 lung tumor cells were purchased from ATCC. Cells were cultivated in DMEM culture solution containing 10% fetal bovine serum at 37° C. and 5% CO2. The cells were passaged for every three days and cells within the 15th passage were used.
# 2) Tumor immunization. 5×10^5 D121 lung cancer cells (purchased from ATCC) which were killed by irradiation were intraperitoneally injected to mice. The mice were injected for 3 times, once every two weeks. After immunization, mice were injected with tumor cells and the drugs were administered weekly for 4 weeks.
# 3) Production of tumor. At day 32, 10^6 live lung tumor cells were subcutaneously injected to the back of the C57 mice immunized by tumor. Treatment began when the tumor grew to 0.3-0.4 cm.
# 2) Tumor immunization. 5×10^5 D121 lung cancer cells (purchased from ATCC) which were killed by irradiation were intraperitoneally injected to mice. The mice were injected for 3 times, once every two weeks. After immunization, mice were injected with tumor cells and the drugs were administered weekly for 4 weeks. In table 16 below the immune group was immuned with D121 lung tumor cells and the group without dead D121 lung tumor cells was injected with physiological saline as controls.
# 3) Production of tumor. After immunization (4 weeks later), 10^6 live lung tumor cells were subcutaneously injected to the back of the C57 mice immunized by tumor. Treatment began when the tumor grew to 0.3-0.4 cm. Tumor size (mm^3) were noted and tumor inhibition rates were calculated.
# 2) Tumor immunization. 5×10^5 D121 lung cancer cells (purchased from ATCC) which were killed by irradiation were intraperitoneally injected to mice. The mice were injected for 3 times, once every two weeks. After immunization, mice were injected with tumor cells and the drugs were administered weekly for 4 weeks. In the table below the immune group was immuned with D121 lung tumor cells and the group without dead D121 lung tumor cells was injected with physiological saline as controls.
# 3) Production of tumor. At day 32, 10^6 live D121 lung tumor cells were subcutaneously injected to the back of the C57 mice immunized by tumor. Treatment began when the tumor grew to 0.3-0.4 cm.
# 1) D121 lung tumor cells were purposed from ATCC. Cells were cultivated in DMEM culture solution containing 10% fetal bovine serum at 37° C. and 5% CO2. The cells were passaged for every three days and cells within the 15th passage were used.
# [12] = test system: Human breast cancer MDA-MB435 tumor tissue homogenate; assay type: biochemical; settings: Human breast cancer MDA-MB435 tumor tissue homogenate (30 μg/ml); 1 mg/ml compound
# Experimental: as §1
# (§7) At 37 °C, sample compounds were added into 100 μg acidized human breast cancer (MDA-MB435) tumor tissue homogenates (pH6.0) in a concentration of 1 mg/ml.
# as §2, §7, §3, §4, §5
# [13] = test system: Human heart; assay type: biochemical; settings: Human heart homogenate; 1 mg/ml compound
smiles,measurement,setting,value
CC[C@H](C)[C@@H]([C@@H](CC(=O)N1CCC[C@H]1[C@H](OC)[C@@H](C)C(=O)N[C@H](C)[C@@H](O)c1ccccc1)OC)N(C)C(=O)[C@@H](NC(=O)[C@H](C(C)C)N(C)C(=O)OCc1ccc(NC(=O)[C@H](CC(N)=O)NC(=O)[C@H](C)NC(=O)[C@H](C)NC(C)=O)cc1)C(C)C [AC-AAN-PABC-MMAE] (Ac-AAN[PABC][NMeV]V[Dil][Dolaproine]-X3),tumor inhibition rate (%),[1],16.7%
same,Cytoxicity reduced (Multiples),[2],15.5 Multiples
same,Cleaving efficiency,[3],3.4%
CCC(C)C(C(CC(=O)N1CCCC1C(OC)C(C)C(=O)NC(C)C(O)c1ccccc1)OC)N(C)C(=O)C(NC(=O)C(C(C)C)N(C)C(=O)OCc1ccc(NC(=O)C(CC(N)=O)NC(=O)C(C)NC(=O)C(C)NC(=O)COCCOC)cc1)C(C)C (stereo not drawn) [PEG-AAN-PABC-MMAE] (MeOCH2CH2OCH2CO-AAN[PABC][NMeV]V[X1][Dolaproine(all-ξ)]-X2; configuration not given here),tumor inhibition rate (%),[1],34.4%
same,Cytoxicity reduced (Multiples),[2],22 Multiples
same,Cleaving efficiency,[3],14.4%
CC[C@H](C)[C@@H]([C@@H](CC(=O)N1CCC[C@H]1[C@H](OC)[C@@H](C)C(=O)N[C@H](C)[C@@H](O)c1ccccc1)OC)N(C)C(=O)[C@@H](NC(=O)[C@H](C(C)C)N(C)C(=O)OCc1ccc(NC(=O)[C@H](CC(N)=O)NC(=O)[C@H](C)NC(=O)[C@H](C)NC(=O)OCc2ccccc2)cc1)C(C)C [CBZ-AAN-PABC-MMAE] (Cbz-AAN[PABC][NMeV]V[Dil][Dolaproine]-X3),tumor inhibition rate (%),[1],9.7%
same,Cytoxicity reduced (Multiples),[2],8.3 Multiples
same,Cleaving efficiency,[3],2.6%
COCCOCC(=O)N[C@@H](C)C(=O)N[C@@H](C)C(=O)N[C@@H](CC(N)=O)C(=O)N[C@@H](CC(C)C)C(=O)N[C@H]1C[C@H](O[C@H]2C[C@](O)(C(=O)CO)Cc3c(O)c4c(c(O)c32)C(=O)c2c(OC)cccc2C4=O)O[C@@H](C)[C@H]1O [PEG-AANL-DOX] (MeOCH2CH2OCH2CO-AANL-{Doxorubicin(3'-N)}),tumor inhibition rate (%),[1],60.3%
same,Cytoxicity reduced (Multiples),[2],110.2 Multiples
same,Cleaving efficiency,[3],66.5%
"COCCOCC(=O)N[C@H](C(=O)N[C@@H](C)C(=O)N[C@@H](CC(N)=O)C(=O)Nc1ccc(COC(=O)N[C@H]2C[C@H](O[C@H]3C[C@](O)(C(C)=O)Cc4c(O)c5c(c(O)c43)C(=O)c3c(OC)cccc3C5=O)O[C@@H](C)[C@H]2O)cc1)C(C)O (stereo partly drawn) [Compound S4, 4-N—(N—(N—(N-2-(2-methoxyethoxy)acetyl-L-threonyl)-L-alanyl)-L-asparaginyl)-amino benzyl alcohol-daunorubicin-carbamate]",Activation Efficiencies (%),[4],78.5%
same,Activation Efficiencies (%),[5],64.5%
same,Activation Efficiencies (%),[6],67.3%
same,Activation Efficiencies (%),[7],64.5%
same,Activation Efficiencies (%),[8],67.3%
same,Activation Efficiencies (%),[9],83.5%
same,CD8: CD45 (%),[10],16.8%
same,Size of tumor (mm^3) Day 10,"[1]; MDA-MB231, nude mice, IV 13.2 μmol/kg once weekly for four weeks, Day 10",95.56 ± 57.54 mm^3
same,Size of tumor (mm^3) Day 24,"[1]; MDA-MB231, nude mice, IV 13.2 μmol/kg once weekly for four weeks, Day 24",64.68 ± 43.56 mm^3
same,"Effect on tumor growth, in words","[1]; compared to control, camptothecin, capecitabine and daunorubicin groups",strong inhibitory effect on tumor growth
same,Size of tumor (mm^3) Day 18,"[11]; D121 immunized C57 mice, 13.2 μmol/kg weekly, PDL1 antibody 5 μg/kg where combined, Day 18",316.78 ± 109.98 mm^3
same,"Treatment effects on C57 mice, in words",[11]; compared to the control group and the other treatment groups,greatly improved
same,Activation Efficiencies (%),[12],83.5%
same,Cytoxicity reduced (Multiple),"[2]; HEK293, 72 hours, MTT, IC50 of modified compound compared to its corresponding cytotoxic compound, approximate multiples",345 Multiple
same,Activation Efficiencies (%),[13],2.8%
